In patent US6461997B1, “Triazole sulfones having herbicidal activity” (Monsanto Technology LLC, priority 1999, dated 2002):

Legend:
SASKR (russian thistle) = test: Pre-emergence herbicidal activity, cool season; format: in vivo, Salsola kali; conditions: lowest tested rate with 80% or greater inhibition; rates 300, 100, 30, 10 g/ha; about 14 days
Method: (§1) Tables 5 to 8 summarize results of tests conducted as described below to determine the pre-emergence herbicidal activity, in the form of a GR80 value, of illustrative compounds of this invention. […] Compounds of the invention were typically applied at rates of 300, 100, 30, and 10 g/ha. Where herbicidal activity was evident but 80% inhibition was not achieved at the highest rate tested, an asterisk (*) is shown in the following tables.
(§2) The pre-emergence tests were conducted by the following procedure. Topsoil was sieved to pass through a 1.27 cm screen. Fertilizer was added to the topsoil and the mixture was then sterilized by heating. The topsoil mixture was placed in a pot and compacted to a depth of 1.0 to 1.25 cm from the top of the pot. Seeds of each of several monocotyledonous and dicotyledonous annual plant species were placed on top of the soil. Additional soil was subsequently placed over the seeds to level-fill the pot. A known amount of each test compound dissolved or suspended in an appropriate organic solvent was diluted with a 50:50 mix of acetone and water and applied to the surface of the soil. After treatment the plants were placed in a greenhouse where they received 0.64 cm of overhead irrigation. All subsequent watering consisted of a light overhead mist and/or subirrigation as needed for germination and growth. Tables 5 and 6 below relate to warm season plant species which were placed after pre-emergence treatment in a greenhouse with a 30/21° C. day/night temperature regime. Tables 7 and 8 below relates to cool season plant species placed after pre-emergence treatment in a greenhouse or growth chamber with an 18/13° C. day/night temperature regime.
(§3) Approximately 14 days after planting and treating, the plants were observed and herbicidal efficacy recorded as percent inhibition by comparison with untreated plants.
(§4) The plant species usually regarded as weeds which were utilized in the tests are identified in the tables below according to the following legend, in which “d” indicates a dicotyledonous species and “m” a monocotyledonous species. All monocotyledonous species included in the tests herein are grasses.

[1] = test system: GALAP (catchweed bedstraw); test: Pre-emergence herbicidal activity, cool season; format: in vivo, Galium aparine; conditions: lowest tested rate with 80% or greater inhibition; rates 300, 100, 30, 10 g/ha; about 14 days
Method: as §1, §2, §3, §4

SINAR (wild mustard) = test: Pre-emergence herbicidal activity, cool season; format: in vivo, Sinapis arvensis; conditions: lowest tested rate with 80% or greater inhibition; rates 300, 100, 30, 10 g/ha; about 14 days
Method: as §1, §2, §3, §4

[2] = test system: LAMPU (purple deadnettle); test: Pre-emergence herbicidal activity, cool season; format: in vivo, Lamium purpureum; conditions: lowest tested rate with 80% or greater inhibition; rates 300, 100, 30, 10 g/ha; about 14 days
Method: as §1, §2, §3, §4

POLCO (wild buckwheat) = test: Pre-emergence herbicidal activity, cool season; format: in vivo, Polygonum convolvulus; conditions: lowest tested rate with 80% or greater inhibition; rates 300, 100, 30, 10 g/ha; about 14 days
Method: as §1, §2, §3, §4

[3] = test system: VERPE (creeping speedwell); test: Pre-emergence herbicidal activity, cool season; format: in vivo, Veronica persicaria; conditions: lowest tested rate with 80% or greater inhibition; rates 300, 100, 30, 10 g/ha; about 14 days
Method: as §1, §2, §3, §4

STEME (common chickweed) = test: Pre-emergence herbicidal activity, cool season; format: in vivo, Stellaria media; conditions: lowest tested rate with 80% or greater inhibition; rates 300, 100, 30, 10 g/ha; about 14 days
Method: as §1, §2, §3, §4

[4] = test system: AGSST (creeping bentgrass); test: Pre-emergence herbicidal activity, cool season; format: in vivo, Agrostis stolonifera; conditions: GR80 = lowest tested rate (300, 100, 30, 10 g/ha) with 80% or greater inhibition; approx. 14 days after treating; 18/13° C.
Method: as §1, §2, §3, §4

[5] = test system: PANMI (wild proso millet); test: Pre-emergence herbicidal activity, warm season; format: in vivo, Panicum miliaceum; conditions: GR80 = lowest tested rate (300, 100, 30, 10 g/ha) with 80% or greater inhibition; approx. 14 days after treating; 30/21° C.
Method: as §1, §2, §3, §4

SETVI (green foxtail) = test: Pre-emergence herbicidal activity, cool season; format: in vivo, Setaria viridis; conditions: GR80 = lowest tested rate (300, 100, 30, 10 g/ha) with 80% or greater inhibition; approx. 14 days after treating; 18/13° C.
Method: as §1, §2, §3, §4

| Compound | Pre-emergence activity GR80, SASKR (SASKR (russian thistle)) | Pre-emergence activity GR80, GALAP [1] | Pre-emergence activity GR80, SINAR (SINAR (wild mustard)) | Pre-emergence activity GR80, LAMPU [2] | Pre-emergence activity GR80, POLCO (POLCO (wild buckwheat)) | Pre-emergence activity GR80, VERPE [3] | Pre-emergence activity GR80, STEME (STEME (common chickweed)) | Pre-emergence activity (GR80) AGSST [4] | Pre-emergence activity (GR80) PANMI [5] | Pre-emergence activity (GR80) SETVI (SETVI (green foxtail)) |
| --- | --- | --- | --- | --- | --- | --- | --- | --- | --- | --- |
| O=C(N1CCOCC1)n1cnc(S(=O)(=O)C(F)F)n1 [Example 25] | [empty] | 300 g/ha | [empty] | 300 g/ha | [empty] | [empty] | [empty] |  |  |  |
| COCCN(C)C(=O)n1cnc(S(=O)(=O)C(F)F)n1 [Example 29] | 300 g/ha | [empty] | 300 g/ha | 300 g/ha | [empty] | 100 g/ha | 300 g/ha | 300 g/ha |  |  |
| CCN(CC)C(=S)n1cnc(S(=O)(=O)C(F)F)n1 [Example 35] | [empty] | 100 g/ha | 100 g/ha | 300 g/ha | 100 g/ha | 100 g/ha | [empty] |  |  |  |
| CN(C(=O)n1cnc(S(=O)(=O)C(F)(F)Br)n1)c1ccccc1 [Example 38] | [empty] | [empty] | [empty] | [empty] | [empty] | [empty] | [empty] |  |  |  |
| C#CCN(C)C(=O)n1cnc(S(=O)(=O)C(F)(F)Br)n1 [Example 42] | [empty] | 300 g/ha | [empty] | [empty] | [empty] | [empty] | [empty] | 100 g/ha | 300 g/ha |  |
| CCSC(F)(F)S(=O)(=O)c1ncn(C(=O)N(C)c2ccccc2)n1 [Example 50] | [empty] | 100 g/ha | [empty] | [empty] | [empty] | [empty] | 300 g/ha | 30 g/ha | 300 g/ha |  |
| C#CCN(C)C(=O)n1cnc(S(=O)(=O)C(F)(F)SCC)n1 [Example 54] | [empty] | [empty] | [empty] | [empty] | 100 g/ha | 300 g/ha | [empty] |  | 300 g/ha |  |
| O=C(N1CCOCC1)n1cnc(S(=O)(=O)C(F)(F)C(F)F)n1 [Example 60] | [empty] | [empty] | [empty] | [empty] | [empty] | [empty] | [empty] |  |  |  |
| CN(C(=O)n1cnc(S(=O)(=O)C(F)(F)C(F)F)n1)c1ccccc1 [Example 62] | [empty] | [empty] | [empty] | 300 g/ha | [empty] | [empty] | [empty] |  |  |  |
| O=C(N1CCOCC1)n1cnc(S(=O)(=O)C(F)(F)C(F)(F)Br)n1 [Example 72] | [empty] | [empty] | [empty] | [empty] | 300 g/ha | [empty] | [empty] |  |  |  |
| CN(C(=O)n1cnc(S(=O)(=O)C(F)(F)C(F)(F)Br)n1)c1ccccc1 [Example 74] | 300 g/ha | [empty] | 300 g/ha | 300 g/ha | [empty] | 300 g/ha | [empty] |  | 300 g/ha |  |
| C=CCN(C)C(=O)n1cnc(S(=O)(=O)C(F)(F)C(F)(F)Br)n1 [Example 77] | [empty] | [empty] | [empty] | [empty] | [empty] | [empty] | [empty] | 300 g/ha |  |  |
| CN(Cc1ccccc1)C(=O)n1cnc(S(=O)(=O)C(F)(F)C(F)(F)Br)n1 [Example 80] | [empty] | [empty] | [empty] | [empty] | [empty] | [empty] | [empty] |  | 300 g/ha | 300 g/ha |
| CN(C(=O)n1cnc(S(=O)(=O)C(F)(F)Cl)n1)c1ccccc1 [Example 86] | 300 g/ha | 300 g/ha | 300 g/ha | 100 g/ha | [empty] | 100 g/ha | [empty] |  |  |  |
| C#CCN(C)C(=O)n1cnc(S(=O)(=O)C(F)(F)Cl)n1 [Example 90] | 30 g/ha | [empty] | 300 g/ha | [empty] | [empty] | 10 g/ha | [empty] |  |  |  |
